These results are taken from PMC5635026, “Homo-PROTACs: bivalent small-molecule dimerizers of the VHL E3 ubiquitin ligase to induce self-degradation” (Nature Communications, 2017).

One may read the Kd as the concentration at which binding is half-saturated.

The target in one assay is pVHL19 (Homo sapiens, UniProt P40337). Briefly: Isothermal titration calorimetry (ITC) against VCB complex with short VHL isoform (V19CB). The format is binding. On the set-up: made in house. To be noted: for ΔG / ΔH / −TΔS / Kd / n: 25 °C; for ΔG / ΔH / −TΔS / α: pVHL19; for Kd / n: pVHL19 (V19CB); for n: stoichiometry of binding; for α: avidity / cooperativity compared to VH032, ITC. On the procedure:
Protein expression and purification. Human proteins VHL (UniProt accession number: P40337), ElonginC (Q15369), and ElonginB (Q15370) were used for all protein expression. The short-isoform-containing VCB complex (V19CB) was expressed, purified and stored as described previously. For expression of the long-isoform-containing VCB complex (V30CB), N-terminally His6-tagged VHL (1–213), ElonginC (17–112) and ElonginB (1–104) were co-expressed in Escherichia coli BL21(DE3) at 20 °C for 18 h using 0.5 mM isopropyl β-D-1-thiogalactopyranoside (IPTG). E. coli cells were resuspended in binding buffer (50 mM HEPES, pH 8.0, 500 mM NaCl, 10 mM imidazole and 5 mM β-mercaptoethanol), lysed using a pressure cell homogenizer (Stansted Fluid Power), and lysate clarified by centrifugation. The supernatant was loaded onto a HisTrap FF affinity column (GE Healthcare) equilibrated with binding buffer, and bound protein was eluted using an imidazole gradient. The His6 tag was removed using thrombin protease (Sigma), and the untagged complex was dialyzed into binding buffer. V30CB was then loaded onto the HisTrap FF column a second time, allowing impurities to bind as the complex eluted without binding. The flow-through was dialyzed using a low-salt buffer (20 mM HEPES, pH 8.0, 25 mM NaCl and 1 mM DTT) and then loaded onto a Resource Q anion exchange column (GE Healthcare); bound protein was eluted across a linear NaCl gradient. V30CB was then additionally purified by size-exclusion chromatography using a Superdex-75 16/600 column (GE Healthcare) equilibrated with 20 mM HEPES, pH 7.5, 100 mM sodium chloride and 1 mM TCEP. All chromatography purification steps were performed using Äkta FPLC purification systems (GE Healthcare).
Isothermal titration calorimetry (ITC). Titrations were performed on an ITC200 micro-calorimeter (GE Healthcare). […] The final DMSO concentration was 0.15% v/v. VCB protein experiments were carried out in a buffer containing 20 mM Bis-tris propane, 150 mM NaCl, 1 mM TCEP, 0.15% v/v DMSO, pH 7.4. The titrations consisted of 19 injections of 2 µL compounds solution (150 µM, in the syringe) at a rate of 0.5 µl s^−1 at 120 s time intervals into the VCB protein solution (20 µM, in the cell). An initial injection of compound solution (0.4 µL) was made and discarded during data analysis. All experiments were performed at 25 °C, whilst stirring the syringe at 600 rpm. The data were fitted to a single binding site model to obtain the stoichiometry n, the dissociation constant K d and the enthalpy of binding ΔH using the Microcal LLC ITC200 Origin software provided by the manufacturer.
For orientation: In ITC the heat of successive injections is recorded.

In assay [1] the test system is Leucine-rich repeat-containing protein 42 (LRRC42). Nature of the assay: TMT MS proteomics in HeLa cells, LRRC42 abundance. It counts as cell-based, Homo sapiens. Particulars: 1 µM, 10 h, two replicates. On the procedure:
MS proteomics. Sample preparation. HeLa cells were seeded at 5 × 10^6 on a 10 cm plate 16 h before treatment. […] Cells were incubated at 37 °C and 5% CO2 for 10 h before harvesting. Cells were placed on ice and medium was removed and cells were washed twice with cold PBS. Cells were lysed in 0.5 ml of 100 mM Tris pH 8.0, 4% (w/v) SDS supplemented with protease inhibitor cocktail (Roche). The lysate was pulse sonicated briefly and then centrifuged at 17,000 × g for 15 min at 4 °C. The supernatant fraction of cell extract was snap-frozen in liquid nitrogen and stored in −80 °C freezer. Further sample processing, digestion, desalting, labeling and fractionation were performed as previously described.
nLC-MS/MS analysis. The TMT 10plex fractions were first analyzed as previously described. Briefly, the TMT 10plex fractions were analyzed sequentially on a Q Exactive HF Hybrid Quadrupole-Orbitrap Mass Spectrometer (Thermo Scientific) coupled to an UltiMate 3000 RSLCnano UHPLC system (Thermo Scientific) and EasySpray column (75 μm × 50 cm, PepMap RSLC C18 column, 2 μm, 100 Å, Thermo Scientific). The MS2 isolation window was set to 0.4 Da and the resolution set at 120,000. MS2 resolution was set at 60,000. The AGC targets for MS1 and MS2 were set at 3e^6 ions and 1e5 ions, respectively. The normalized collision energy was set at 32%. […] After the first analysis, the TMT labeled fractions were re-analyzed on the Q-Exactive HF using the same instrument settings and a target list generated from a theoretical trypsin digest of VHL. […] After the second analysis, two fractions were further analyzed using a targeted SIM/ddMS2 method on the Q-Exactive HF. […]
Peptide and protein identification. All the raw MS data files from the three analyses were merged and searched against the Uniprot-sprot-Trembl-Human-Canonical database by Maxquant software 1.5.3.30 for protein identification and TMT reporter ion quantitation. […] Quantified proteins were filtered if the absolute fold-change difference between the two DMSO replicates was ≥ 1.5.

Structures are written as SMILES. “And” between values parts separate entries of the source, which are not always exact repeats. Equal entries are not always repeated. Some results are limits rather than exact numbers.

Sequence of pVHL19 (P40337 54-213): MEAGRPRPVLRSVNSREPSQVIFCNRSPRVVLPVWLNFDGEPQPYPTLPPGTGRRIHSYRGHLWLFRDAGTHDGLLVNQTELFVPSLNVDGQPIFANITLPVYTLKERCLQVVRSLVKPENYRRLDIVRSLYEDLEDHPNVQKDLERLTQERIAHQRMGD
Sequence of pVHL19 (Q15369 17-112 partner limits assumed): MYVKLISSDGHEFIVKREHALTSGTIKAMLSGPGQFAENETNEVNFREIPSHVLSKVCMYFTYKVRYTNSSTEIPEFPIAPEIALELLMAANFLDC
Sequence of pVHL19 (Q15370 1-104 partner limits assumed): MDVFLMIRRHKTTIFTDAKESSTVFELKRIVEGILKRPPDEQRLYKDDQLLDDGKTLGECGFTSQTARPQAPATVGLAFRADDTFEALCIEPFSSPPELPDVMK

On to `Cc1ncsc1-c1ccc(CNC(=O)[C@@H]2C[C@@H](O)CN2C(=O)[C@@H](NC(=O)COCCOCCOCCOCCOCC(=O)N[C@H](C(=O)N2C[C@H](O)C[C@H]2C(=O)NCc2ccc(-c3scnc3C)cc2)C(C)(C)C)C(C)(C)C)cc1` [CM10, N ^1 ,N ^17-bis((S)-1-((2S,4R)-4-hydroxy-2-((4-(4-methylthiazol-5-yl)benzyl)carbamoyl)pyrrolidin-1-yl)-3,3-dimethyl-1-oxobutan-2-yl)-3,6,9,12,15-pentaoxaheptadecanediamide], for which, on pVHL19 (ITC), the ΔG entry is given as “–10.2 ± 0.1 kcal mol^−1”, the ΔH result is on record as “–9.4 ± 0.1 kcal mol^−1”, the “−TΔS” value was “–0.8 ± 0.2 kcal mol^−1” and the Kd turned out to be 32 ± 5 nM. Besides, the n at pVHL19 (ITC) is recorded as 0.73 ± 0.01. This compound also gave a α at pVHL19 of 6. Besides, the “average normalized ratio to DMSO, LRRC42” value in assay [1] came out at 0.64.
Regarding `Cc1ncsc1-c1ccc(CNC(=O)[C@@H]2C[C@@H](O)CN2C(=O)[C@@H](NC(=O)COCCOCCOCCOCCOCCOCC(=O)N[C@H](C(=O)N2C[C@H](O)C[C@H]2C(=O)NCc2ccc(-c3scnc3C)cc2)C(C)(C)C)C(C)(C)C)cc1` [CM11, N ^1 ,N ^20-bis((S)-1-((2S,4R)-4-hydroxy-2-((4-(4-methylthiazol-5-yl)benzyl)carbamoyl)pyrrolidin-1-yl)-3,3-dimethyl-1-oxobutan-2-yl)-3,6,9,12,15,18-hexaoxaicosanediamide], at pVHL19 (ITC), the ΔG result is “–10.9 ± 0.1 kcal mol^−1”; the “−TΔS” value is 1.4 kcal/mol and 1.4 ± 0.8 kcal/mol; the equilibrium dissociation constant (Kd) was 11 ± 2 nM; the n is 0.6 ± 0.01. Moreover, the “avidity (cooperativity α) compared to VH032” value at pVHL19 (ITC, VCB) is recorded as above 18 fold. Also, on pVHL19, the α is 18. The “average normalized ratio to DMSO, LRRC42” value in assay [1] is reported as 0.60.
Take `Cc1ncsc1-c1ccc(CNC(=O)[C@@H]2C[C@@H](O)CN2C(=O)[C@@H](NC(=O)COCCOCCOCCOCC(=O)N[C@H](C(=O)N2C[C@H](O)C[C@H]2C(=O)NCc2ccc(-c3scnc3C)cc2)C(C)(C)C)C(C)(C)C)cc1` [CM09, N ^1 ,N ^14-bis((S)-1-((2S,4R)-4-hydroxy-2-((4-(4-methylthiazol-5-yl)benzyl)carbamoyl)pyrrolidin-1-yl)-3,3-dimethyl-1-oxobutan-2-yl)-3,6,9,12-tetraoxatetradecanediamide]: at pVHL19 (ITC), the ΔG entry is “–10.3 ± 0.2 kcal mol^−1”, the ΔH result is given as “–6.9 ± 0.3 kcal mol^−1”, the “−TΔS” value is “–3.5 ± 0.5 kcal mol^−1” and the equilibrium dissociation constant (Kd) worked out at 41 ± 15 nM. This compound returned a n on pVHL19 (ITC) of 0.98 ± 0.09. Moreover, the α on pVHL19 turned out to be 4. Also, the “average normalized ratio to DMSO, LRRC42” value in assay [1] is listed as 2.15.
